A melting point compilation (Tetko et al.; mined from patent text by program, amines drawn as free bases though some values may be those of a salt)

Work on `CN(Cc1cccc2c1CN(C1CCC(=O)NC1=O)C2=O)C(=O)Nc1cc(Cl)cc(Cl)c1` (centres undefined) yielded a melting point of 285 to 287 °C. In the case of `Cc1c(C)c2c(c(C)c1N)CC(C)(CN1CCC(O)(c3ccc(Cl)cc3)CC1)O2` (centres undefined), the melting point was 118 to 120 °C. In the case of `CSc1nc(NC2CC2)nc(Cl)c1C#N`, the melting point was 139 to 141 °C. Compound `COc1cc(C(=O)O)cc(OC)c1Cl` has a melting point of 102 to 103 °C. Work on `CCOC(=O)CNC(=O)Oc1c(CC)n(C)ccc1=O` yielded a melting point of 99 to 100 °C. Work on `Nc1cc(S(N)(=O)=O)sc1Cl` yielded a melting point of 138 °C. `Nc1ccc(C2CC2)cc1C(=O)O` gave a melting point of 158 °C. Work on `CC(=O)Nc1cccc(C)c1C(=O)O` yielded a melting point of 189 to 190 °C. In the case of `Cc1noc2cc3c(cc12)C1(CO3)C(=O)N(Cc2ncccc2F)c2ccccc21` (centres undefined), the melting point was 167 to 169 °C. For `CC1COCC(C)N1c1cccc([N+](=O)[O-])c1` (centres undefined), the melting point was 127 to 128 °C. With `CCCc1c(C#N)c(-c2ccc(C#N)cc2)c(C)n1Cc1cnc(Cl)c(CO)c1` the melting point was 137 to 138 °C. For `C(#Cc1cnc2ccccc2c1)CCN1CCN(c2ccccn2)CC1`, the melting point was 76.5 to 77 °C. `Cc1ccnc(NCCCCC(=O)O)c1` showed a melting point of 138 to 140 °C. Compound `CC(O)c1occc(=O)c1O` (centres undefined) has a melting point of 131 to 132 °C. Work on `O=S(CCC=C(F)F)NCc1ccc(Cl)cc1` (centres undefined) yielded a melting point of 37 to 38 °C. In the case of `Cc1ccc(S(=O)(=O)OC[C@H]2CN(c3cccc(F)c3)C(=O)O2)cc1`, the melting point was 114 to 115 °C. `CSc1nccc(Oc2ccc(NC(=O)c3cc(F)cc(N4CCCC4)c3)c3ccccc23)n1` showed a melting point of 180 to 181 °C. Compound `c1csc(N2CCN(Cc3ccc4sccc4c3)CC2)n1` has a melting point of 80 to 82 °C. `NC(=O)N1CC(Oc2ccc(C(F)(F)F)cc2Cl)C1` gave a melting point of 156 to 159 °C. `O=C(CCC1CCCC1)Nc1ccc(-n2nc(C(F)(F)F)cc2C(F)(F)F)cc1` showed a melting point of 130 to 132 °C. For `NS(=O)(=O)c1cccc(C2CC2)c1`, the melting point was 71.5 to 72.9 °C. `Nc1ncc(-c2cc(N3CCOCC3)nc(-n3c(C(F)F)nc4ccccc43)n2)cn1` showed a melting point of 281 to 285 °C. With `CCN(c1ccc(Br)cc1)S(=O)(=O)C(F)(F)F` the melting point was 59 to 60 °C. In the case of `CC(C)(C)OC(=O)Nc1ncccc1Br`, the melting point was 120 to 121 °C. Work on `COc1ccc(-c2c(Cl)c(Cn3cncn3)nc3sc4c(c23)CCN(Cc2ccccc2)C4)cc1OC` yielded a melting point of 165 to 166 °C. For `O=c1ccc2c(-c3ccccc3)cc(N3CCN(Cc4ccccc4)CC3)n2cc1`, the melting point was 157 °C. Compound `CC(C)(C)N(C(=O)C(O)(C(=O)O)c1ccccc1)C(C)(C)C` (centres undefined) has a melting point of 99 to 100 °C. Compound `CCCCCCCC(=O)N1CCc2nnc(NN)cc2C1` has a melting point of 164 to 166 °C. In the case of `O=C=NC(=O)CS(=O)(=O)c1ccc(Cl)cc1`, the melting point was 58 to 60 °C. `COc1ccccc1NC(C)C(=O)O` (centres undefined) showed a melting point of 205 to 208 °C. Work on `CCOC(=O)C(C)Oc1ccc(Sc2nnc3cc(Cl)ccc3n2)cc1` (centres undefined) yielded a melting point of 86 to 88 °C. For `O=C(NCC12CC3CC(CC(C3)C1)C2)c1cccc([N+](=O)[O-])c1Cl`, the melting point was 185 °C. Compound `O=C(O)CCSCC(=O)c1ccc2[nH]c(=O)[nH]c2c1` has a melting point of 212 to 215 °C. For `CC(C(=O)O)N(C(=O)OC(C)(C)C)c1ccc([N+](=O)[O-])cc1` (centres undefined), the melting point was 100 to 104 °C. In the case of `O=C(Nc1ccc(-n2nc(C(F)(F)F)cc2C(F)(F)F)cc1)Nc1ccc(Cl)c([N+](=O)[O-])c1`, the melting point was 207 to 209 °C. Compound `O=C(CBr)OCC1OC(Sc2ccccc2)C(OCc2ccccc2)C(OCc2ccccc2)C1OCc1ccccc1` (centres undefined) has a melting point of 85 to 87 °C. `CCCCCCCCCCCCCCOc1cccc(CC(=O)Nc2ccccc2CO)c1` gave a melting point of 100 to 103 °C. With `NC(=O)N(O)Cc1ccc(N2CCC(=O)CC2)cc1` the melting point was 138 to 140 °C. `COc1cc(OC)nc(Oc2ccccc2C(=O)NS(=O)(=O)C(C)C)n1` showed a melting point of 128 to 130 °C. For `COc1c(Br)cc(Br)c2ccc(C=Cc3ccccc3)nc12`, the melting point was 150 to 152 °C. For `Cc1ccc(N2C(=O)c3ccccc3C2=O)c(Cl)c1Cl`, the melting point was 109 °C. `Cc1cccc(-c2nc(O)c(C)s2)c1Cl` showed a melting point of 183 to 184 °C. With `OCC1CC(n2c(N3CCC3)nc3cc(Cl)c(Cl)cc32)C(O)C1O` (centres undefined) the melting point was 221 to 222 °C. Compound `COc1ccc(CSc2nnc(CCl)s2)cc1` has a melting point of 60.5 to 63.5 °C. For `N#Cc1c(N2CCN(C(=O)C3CCCS3)CC2)c2ccccc2n(Cc2ccc(F)cc2)c1=O` (centres undefined), the melting point was 133 to 140 °C. Compound `O=C(CCl)Nc1ccc2c(c1NC(=O)c1ccccc1Cl)C(=O)c1ccccc1C2=O` has a melting point of 193 to 194 °C. In the case of `CS(=O)(=O)OCCCc1ccc(SCc2coc(/C=C/c3ccccc3)n2)cc1`, the melting point was 97 to 98 °C. `Cc1ccc2c(O)c(C(=O)O)cnc2c1` gave a melting point of 264 to 265 °C. `O=C(Cl)c1c(Cl)c(Cl)c(Cl)c2c(Cl)c(Cl)c(Cl)c(Cl)c12` showed a melting point of 163 to 165 °C. `CCCCCCCCCCCCSCCC(=O)OC(CSCCCCCCCCCCCC)CSCCCCCCCCCCCC` showed a melting point of 31 to 32 °C. In the case of `CCCCc1nc2c(c(C)c(C)n3nnnc23)n1CC(C)(C)NC(=O)OC(C)(C)C`, the melting point was 179 to 181 °C. `Nc1ccccc1NC(=O)c1cc2cccc(OCCO)c2o1` gave a melting point of 182 to 183 °C. For `O=C(O)c1c(C(F)(F)F)ccc(Cl)c1Cl`, the melting point was 88 to 89 °C. In the case of `CCCCCCCCCCOc1cc(O)cc(OCCCCCCCCCC)c1`, the melting point was 48 to 50 °C. Compound `Cn1cc(-c2ccnnc2)ccc1=O` has a melting point greater than 250 °C. Work on `CC(=O)NC1CCC(=O)N2CCCC(C(=O)NC(CC(=O)OC(C)(C)C)C(=O)COC(=O)c3c(Cl)cccc3Cl)N2C1=O` (centres undefined) yielded a melting point of 80 to 125 °C. `O=C(O)c1ccc(-c2noc(-c3ccc(C(F)(F)F)cc3)n2)cc1` gave a melting point of 286 to 287 °C. `COc1cc2c(cc1C)C1(CO2)C(=O)N(Cc2ccccn2)c2ccccc21` (centres undefined) showed a melting point of 142 to 144 °C. Compound `COc1ccc(C2=C(/C=C/C(=O)O)CCc3cc(OC)ccc32)cc1` has a melting point of 222 to 224 °C. Compound `C=CCNc1nc(NC23CC4CC(CC(C4)C2)C3)c2scc(C)c2n1` has a melting point of 107 to 109 °C. With `Cc1ccc(C2CC(CN(C)C)Oc3ccccc32)cc1` (centres undefined) the melting point was 114 to 116 °C. For `CCOC(=O)[C@H](Cc1ccc(NC(=O)c2c(Cl)cncc2Cl)cc1)NC1=CC(=O)C12CCCCC2`, the melting point was 194 °C. In the case of `CC(C)CC(NC(=O)C(C)CS)C(=O)O` (centres undefined), the melting point was 66 to 71 °C. With `CCOC(=O)c1cc(CC)sc1Nc1ccc(F)cc1[N+](=O)[O-]` the melting point was 90 °C. Compound `CC(=O)OC1C(NC(=O)c2ccc(C(F)(F)F)cc2)c2sc(C(C)=O)cc2OC1(C)C` (centres undefined) has a melting point of 225 to 227 °C. `CSc1nncc(-c2ccco2)n1` showed a melting point of 88 to 90 °C. With `COc1ccc(/C=C2/c3cc(OC)c(OC)cc3CCN2C(=O)c2cc(OC)c(OC)c(OC)c2)cc1OC` the melting point was 195 to 200 °C. `COc1cc(C(=O)Cc2ccccc2)cc([N+](=O)[O-])c1O` gave a melting point of 129 to 130 °C. Work on `COC(=O)c1ccc(S(=O)(=O)C2CCN(CCc3ccc(F)cc3F)CC2)cc1` yielded a melting point of 123 to 124 °C. `COc1ccc2c(c1)C(=NO)CCCO2` showed a melting point of 103 to 104 °C. Compound `CNc1nc(-c2ccc(OC)cc2)c(-c2cccnc2)s1` has a melting point of 158 to 159 °C. For `CCN1C(=O)C(C(=O)Nc2cccc(C(=O)Nc3ccccc3)c2)c2cc(C(=O)c3ccccc3)ccc21` (centres undefined), the melting point was 129 to 135 °C. In the case of `COc1ccc(Cn2c(=O)c3cnc(Nc4ccc(N5CCN(C)CC5)cc4)nc3n(C(C)C)c2=O)cc1`, the melting point was 215 to 216 °C. In the case of `O=C(O)CN1C(=O)C(=Cc2cc(OCc3ccccc3)c(OCc3ccccc3)c(OCc3ccccc3)c2)SC1=S`, the melting point was 213 to 216 °C. For `CN1Cc2c(C#Cc3ccccc3Cl)ncn2-c2ccc(F)cc2C1=O`, the melting point was 259 to 261 °C. In the case of `CC(C)(Cc1nc2c(N)nc3ccccc3c2s1)OC(N)=O`, the melting point was 222 to 223 °C. For `c1cc(NC2=NCCO2)c2occc2c1`, the melting point was 124 to 126 °C. `OC[C@@H](O)CCc1ccccc1` gave a melting point of 34 to 36 °C. Work on `O=C(O)CCCc1nc2c(F)c(F)cc(F)c2s1` yielded a melting point of 113 to 114 °C. `O=S(=O)(c1cccc(F)c1)N1CCCC1c1ccc(F)cc1` (racemic) showed a melting point of 101 °C. In the case of `CCOC(=O)C1=C(C)NC(C#N)=C(C(=O)OCC)C1c1ccccc1C(=O)OC` (centres undefined), the melting point was 126 to 127 °C. `O=c1nc(Cl)cnn1-c1cc(Cl)cc(Cl)c1` gave a melting point of 148 to 149 °C. In the case of `Nc1c(Cl)cc2nc(O)c(O)nc2c1N`, the melting point was greater than 300 °C. `CC(C)C(=O)N[C@H](CSSC[C@@H](NC(=O)C(C)C)C(=O)O)C(=O)O` showed a melting point of 135 to 137 °C. `CCOC(=O)c1nc(O)sc1-c1ccncc1` gave a melting point of 204 to 206 °C. For `CN(C)S(=O)(=O)n1cnc(-c2ccc(Cl)cc2Cl)c1`, the melting point was 169 to 171 °C. `COc1ccc2c(c1)C(=O)N(c1ccc3c(c1)n(C)c(=O)n3C)C2` showed a melting point of 268 to 270 °C. In the case of `Cc1ccc(N2C(=O)C(O)=C(C(=O)c3ccc(OC(F)(F)F)cc3)C2c2ccc(Cn3cncn3)cc2)nn1` (centres undefined), the melting point was 224 °C. Work on `CCSc1cccc(OC(F)(F)F)c1S(=O)(=O)NC(=O)c1noc(C)n1` yielded a melting point of 111 °C. Compound `CC(=O)c1ccc2c(c1)CCS2(=O)=O` has a melting point of 54 to 56 °C. For `CS(=O)(=O)c1ccc(C(=O)c2cnoc2C2CC2)c(C(F)(F)F)c1S(C)(=O)=O`, the melting point was 191 to 193 °C. In the case of `COC(=O)c1ccc2sc(C(=O)OC)c(O)c2c1Cl`, the melting point was 127 to 131 °C. For `Nc1ccc(NC(=O)CC(=O)c2ccccc2)cc1[N+](=O)[O-]`, the melting point was 182 to 183 °C. In the case of `C=C1C(=O)OC2C1CCC(CO)=CCCC1(C)OC21` (centres undefined), the melting point was 172 to 176 °C. For `CCOC(=O)c1cnc2c(cnn2Cc2ccncc2)c1O`, the melting point was 140 °C. With `NC(=O)Cn1ccc(-c2ccc(Oc3ccc(F)cc3)cc2)n1` the melting point was 145 °C. `CCCCCCCCC(O)C(=O)NCCSSCCNC(=O)C(O)CCCCCCCC` (centres undefined) gave a melting point of 180 to 183 °C. `CCOC(=O)C1(Br)Oc2ccc(OC(C)=O)cc2OC1Br` (centres undefined) showed a melting point of 58 °C. `CC(O)C(=O)NCCNC(=O)C(C)O` (centres undefined) showed a melting point of 188 °C. For `CNS(=O)(=O)/C=C/c1ccc2[nH]cc(C3CCN(C)CC3)c2c1`, the melting point was 190 to 192 °C. For `COC(=O)c1cc(C(=O)c2c(C)c(-c3cccc(OCC(=O)O)c3)c3ccccn23)ccc1N`, the melting point was 160 °C. With `COc1ccc(-c2coc3c(C)c(O)ccc3c2=O)cc1` the melting point was 235 °C. `CN(C)CCc1ccc([N+](=O)[O-])c2[nH]ncc12` showed a melting point of 145 to 146 °C. In the case of `O=C(C=Cc1ccccc1)Nc1ccccc1NC(=O)C=Cc1ccccc1`, the melting point was 212 °C.
